Experiments:
[1] = test system: murine iNKT hybridoma cells; experiment: Sphingamide competition with OCH in vitro, APC-free recombinant mCD1d (IL-2 ELISA); assay type: cell-based, mouse; details: JG168 1-20 ug/ml mixed with 1 ug/ml OCH, FIG. 8
Procedure: For in vitro stimulation, murine iNKT hybridoma cells at 5×10^4 cells/well in 96-well plates were incubated with CD1d (loaded with OCH and the competing sphingamide) and levels of iNKT cell activation was monitored by measuring murine IL-2 secretion by ELISA.

[2] = test system: iNKT cells in C57BL/6 mice; experiment: Sphingamide competition with OCH in vivo, serum IL-4 and IFN-γ; design: species or system mouse; details: FIG. 9
Procedure: Cytokine levels were measured from blood serum using ELISA after 4 hours (IL-4) and 16 hours (IFN-γ).

[3] = cited from earlier work
[4] = test system: murine iNKT hybridoma cells; experiment: iNKT hybridoma activation, APC-free assay with recombinant mCD1d (IL-2 ELISA); assay type: cell-based, mouse; details: FIG. 5A/5D
Procedure: (§1) First, the present sphingamide compounds were tested to determine whether they activated iNKT cell hybridomas when the sphingamide was presented to the iNKT cell TCR by (a) an antigen presenting-cell (APC) free assay which uses recombinant mCD1d, (b) an A20 B-cell (an antigen presenting cell) expressing the wild-type (WT) mCD1d, or (c) an A20 B-cell expressing a tail-deleted mCD1d. The tail deleted mCD1d lacks the “YQDI” amino acid sorting motif required for routing CD1d to endosomes (for example, amino acid residues 314-317 of SEQ ID NO: 2 would be missing).
(§2) For in vitro stimulation, murine iNKT hybridoma cells at 5×10^4 cells/well in 96-well plates were stimulated with the 10^5 cells/well glycolipid pulsed BMDCs in cDMEM for 4, 16 or 24 hours at 37° C. with 0.05 μg/ml, 0.1 μg/ml, 0.5 μg/ml, 1 μg/ml, 2 μg/ml, or 5 μg/ml of lipid, and levels of murine IL-2 secretion were determined by ELISA.
The present sphingamide, or amide-lacking versions were tested to determine whether they activated iNKT cell hybridomas when the sphingamide was presented to the iNKT cell TCR by an antigen presenting-cell (APC) free assay which uses recombinant mCD1d. […]
For in vitro stimulation, murine iNKT hybridoma cells at 5×10^4 cells/well were added to the wells containing CD1d and incubated in the presence of 5% CO2 at 37° C. over night. Levels of murine IL-2 secretion were determined by ELISA.

[5] = test system: murine iNKT hybridoma cells; experiment: iNKT hybridoma activation, A20 B cells expressing tail-deleted mCD1d (IL-2 ELISA); assay type: cell-based, mouse; details: tail-deleted mCD1d A20 B cell, FIG. 5C
Procedure: as §1, §2
(§3) Tail-deleted mCD1d cannot recycle back into the cell, as the binding site for a required lipid loading factor has been deleted. (see Jin et al., Immunity 2009, 30(6):888-898 for a discussion of the model).

[6] = test system: murine iNKT hybridoma cells; experiment: iNKT hybridoma activation, A20 B cells expressing wild-type mCD1d (IL-2 ELISA); assay type: cell-based, mouse; details: A20/mCD1d wt, FIG. 5B
Procedure: as §1, §2, §3

Vα24+ human NKT cells = experiment: Activation of human iNKT cells in vitro, GM-CSF release (sandwich ELISA); assay type: cell-based; details: glycolipid-pulsed PBMCs with Vα24+ human NKT cells, 24 h, FIG. 7
Text: The isolation and expansion of human Vα24^+ NKT cell lines has been published previously (Rogers, P. R., Matsumoto, A., Naidenko, O., Kronenberg, M., Mikayama, T., and Kato, S. (2004) Expansion of human Vα24^+ NKT cells by repeated stimulation with KRN7000. J. Immunol. Methods 285, 197-214). Human donor peripheral blood mononuclear cells (PBMCs, 1-1.5×10^6/ml) were isolated and cultured in RPMI 1640 medium (Invitrogen) supplemented with 10% (v/v) FBS and 1% (v/v) Pen/Strep/glutamine (10,000 units of penicillin, 10 mg of streptomycin, 29.2 mg/ml L-glutamine; Invitrogen), and cultures were expanded by weekly re-stimulation with αGalCer-pulsed, irradiated PBMC and recombinant human IL-2.
PBMCs (1×10^5 per well) were pulsed with glycolipids, seeded in 96-well plates, and cultured in the presence of 5×10^4 Vα24^+ human NKT cells for 24 h. GM-CSF release was evaluated in a sandwich ELISA following the manufacturer's instructions (R&D Systems).

[7] = test system: iNKT cells in C57BL/6 mice; experiment: In vivo activation of iNKT cells, serum cytokines by ELISA; design: species or system mouse

Structure (SMILES): CCCCCCCC(=O)N[C@@H](CO[C@H]1OC(CO)[C@H](O)C(O)[C@@H]1O)[C@H](O)[C@H](O)CCCC(=O)NCCCCCCc1ccccc1 (stereo partly drawn) [JG168]
- competition with OCH (IL-2 secretion) [1]: No competition was observed
- activation of iNKT cells in vivo ([2]; 20 μg JG168 alone i.v.): did not activate iNKT cells in vivo
- competition with OCH (serum IL-4 and IFN-γ) ([2]; 1, 5 or 20 μg JG168 + 1 μg OCH i.v.): no competition was observed

Structure (SMILES): CCCCCCCCCCCCCCCCCCCCCCCC(=O)N[C@@H](CO[C@H]1OC(CO)[C@H](O)C(O)C1O)[C@H](O)[C@H](O)CCCCC (stereo partly drawn) [OCH]
- solubility in aqueous solutions [3]: poorly soluble

Structure (SMILES): CCCCCCCCCCCCCC[C@@H](O)[C@@H](O)[C@H](CO[C@H]1OC(CO)[C@H](O)C(O)C1O)NC(=O)CCCCCCC (stereo partly drawn) [PBS-25]
- IL-2 secretion by iNKT hybridoma [4]: significant amount of IL-2
- IL-2 secretion by iNKT hybridoma [5]: significant amount of IL-2
- IL-2 secretion by iNKT hybridoma [6]: significant amount of IL-2
- solubility in aqueous solutions [3]: readily soluble

Structure (SMILES): CCCCCCCCCCCCCCCCCCCCCCCCCC(=O)N[C@@H](CO[C@H]1O[C@H](CO)[C@H](O)[C@H](O)[C@H]1O)[C@H](O)[C@H](O)CCCCCCCCCCCCCC [α-GalCer, N-[(2S,3S,4R)-3,4-Dihydroxy-1-[(2S,3R,4S,5R,6R)-3,4,5-trihydroxy-6-(hydroxymethyl)oxan-2-yl]oxyoctadecan-2-yl]hexacosanamide]
- GM-CSF secretion (Vα24+ human NKT cells): significant secretion of GMCSF at all doses
- cytokines produced in vivo (IL-4 / IFN-γ) ([7]; 1 μg glycolipid injected i.v., FIG. 12): makes both
- serum IL-4 ([7]; C57BL/6 mice, 5 μg glycolipid i.v., 4 hours): significant amounts
- serum IFN-γ ([7]; C57BL/6 mice, 5 μg glycolipid i.v., 16 hours): significant amounts
- IL-2 secretion by iNKT hybridoma [5]: did not stimulate IL-2 production
- IL-2 secretion by iNKT hybridoma [6]: stimulated the secretion of IL-2
- solubility in aqueous solutions [3]: poorly soluble
